Experimental findings from PubChem BioAssay AID1259407 (Chemical Carcinogenesis Research Information System (CCRIS), 2018) are described below.

The subject of the data set is CCRIS mutagenicity, Ames/micronucleus/aberration tests. The experiment in a line: CCRIS mutagenicity studies.
Setting [1] is: Test System: AMES SALMONELLA TYPHIMURIUM, Strain/Indicator: TA98, Metabolic Activation: NONE, Method: STANDARD PLATE.
[2] abbreviates: Test System: AMES SALMONELLA TYPHIMURIUM, Strain/Indicator: TA98, Metabolic Activation: RAT, LIVER, S-9, AROCLOR 1254, Method: STANDARD PLATE.
Where [3] appears, read: Test System: AMES SALMONELLA TYPHIMURIUM, Strain/Indicator: TA100, Metabolic Activation: NONE, Method: STANDARD PLATE.
[4] abbreviates: Test System: AMES SALMONELLA TYPHIMURIUM, Strain/Indicator: TA100, Metabolic Activation: RAT, LIVER, S-9, AROCLOR 1254, Method: STANDARD PLATE.
Setting [5] is: Test System: AMES SALMONELLA TYPHIMURIUM, Strain/Indicator: TA1535, Metabolic Activation: NONE, Method: STANDARD PLATE.
Setting [6] is: Test System: AMES SALMONELLA TYPHIMURIUM, Strain/Indicator: TA98, Metabolic Activation: NONE, Method: PREINCUBATION
The mark [7] stands for this setting: Test System: AMES SALMONELLA TYPHIMURIUM, Strain/Indicator: TA100, Metabolic Activation: NONE, Method: PREINCUBATION

Active and inactive are the calls of the source. The rule behind the calls is not given here.

Take `NC(=O)/N=N/C(N)=O`: the mutagenic call reads like this: (Test System: AMES SALMONELLA TYPHIMURIUM, Strain/Indicator: TA98, Metabolic Activation: HAMSTER, LIVER, S-9, AROCLOR 1254, Method: STANDARD PLATE) “inactive; negative”; under setting [1], “inactive; negative”; under setting [2], “inactive; negative”; (Test System: AMES SALMONELLA TYPHIMURIUM, Strain/Indicator: TA100, Metabolic Activation: HAMSTER, LIVER, S-9, AROCLOR 1254, Method: STANDARD PLATE) “active; positive”; under setting [3], “active; positive”; under setting [4], “active; positive”. The mutagenic call is, setting by setting: (Test System: MOUSE LYMPHOMA, Strain/Indicator: L5178Y (TK+/TK-), Metabolic Activation: NONE, Method: SUSPENSION/PLATE) “inactive; negative. reevaluation of results: inconclusive”; (Test System: MOUSE LYMPHOMA, Strain/Indicator: L5178Y (TK+/TK-), Metabolic Activation: RAT, LIVER, S-9, AROCLOR 1254, Method: SUSPENSION/PLATE) “inactive; negative. reevaluation of results: negative”.
In the case of `CN(Cc1ccc(Br)cc1)N=O`, the mutagenic call was “active; positive” (Test System: AMES SALMONELLA TYPHIMURIUM, Strain/Indicator: TA1535, Metabolic Activation: HAMSTER, LIVER, S-9, AROCLOR 1254, Method: STANDARD PLATE) and “inactive; negative” under setting [5].
Turning to `c1ccc(N2CCNCC2)cc1`, the mutagenic call reads like this: (Test System: AMES SALMONELLA TYPHIMURIUM, Strain/Indicator: TA97, Metabolic Activation: HAMSTER, LIVER, S-9, AROCLOR 1254, Method: PREINCUBATION) “inactive; negative”; (Test System: AMES SALMONELLA TYPHIMURIUM, Strain/Indicator: TA97, Metabolic Activation: NONE, Method: PREINCUBATION) “inactive; negative”; (Test System: AMES SALMONELLA TYPHIMURIUM, Strain/Indicator: TA97, Metabolic Activation: RAT, LIVER, S-9, AROCLOR 1254, Method: PREINCUBATION) “inactive; negative”; (Test System: AMES SALMONELLA TYPHIMURIUM, Strain/Indicator: TA98, Metabolic Activation: HAMSTER, LIVER, S-9, AROCLOR 1254, Method: PREINCUBATION) “inactive; negative”; under setting [6], “inactive; negative”; (Test System: AMES SALMONELLA TYPHIMURIUM, Strain/Indicator: TA98, Metabolic Activation: RAT, LIVER, S-9, AROCLOR 1254, Method: PREINCUBATION) “inactive; negative”. Moreover, the mutagenic call is “inactive; negative” (Test System: AMES SALMONELLA TYPHIMURIUM, Strain/Indicator: TA100, Metabolic Activation: HAMSTER, LIVER, S-9, AROCLOR 1254, Method: PREINCUBATION); “inactive; negative” under setting [7]; “inactive; negative” (Test System: AMES SALMONELLA TYPHIMURIUM, Strain/Indicator: TA100, Metabolic Activation: RAT, LIVER, S-9, AROCLOR 1254, Method: PREINCUBATION).
`Cc1nc2ccc(N(C)C)c(C)c2nc1C`: the mutagenic call under setting [6] was “inactive; negative”; the mutagenic call (Test System: AMES SALMONELLA TYPHIMURIUM, Strain/Indicator: TA98, Metabolic Activation: RAT, LIVER, S-9, PCB, Method: PREINCUBATION) is “active; positive”; the mutagenic call under setting [7] is “inactive; negative”; the mutagenic call (Test System: AMES SALMONELLA TYPHIMURIUM, Strain/Indicator: TA100, Metabolic Activation: RAT, LIVER, S-9, PCB, Method: PREINCUBATION) was “active; positive”.
For the molecule `C[C@]12CC[C@@H]3c4cc(O)c(O)cc4CC[C@H]3[C@@H]1CC[C@@H]2O`, the mutagenic call is, setting by setting: (End Point: In vitro micronucleus, Test System: Human lymphocytes, Metabolic Activation: None) “active; positive only at 10 ug/ml in cytochalasin block micronuclei; no dose response”; (Test System: Ames Salmonella typhimurium, Strain/Indicator: TA98, Metabolic Activation: None, Method: Standard plate) “inactive; negative”; (Test System: Ames Salmonella typhimurium, Strain/Indicator: TA98, Metabolic Activation: Rat, liver, S-9, Method: Standard plate) “inactive; negative”; (Test System: Ames Salmonella typhimurium, Strain/Indicator: TA100, Metabolic Activation: None, Method: Standard plate) “inactive; negative”; (Test System: Ames Salmonella typhimurium, Strain/Indicator: TA100, Metabolic Activation: Rat, liver, S-9, Method: Standard plate) “inactive; negative”.
Take `CCCCCCN=[N+]=[N-]`: the mutagenic call (Test System: Ames Salmonella typhimurium, Strain/Indicator: TA100, Metabolic Activation: None, Method: Preincubation) is “inactive; negative” and the mutagenic call (Test System: Ames Salmonella typhimurium, Strain/Indicator: TA100, Metabolic Activation: Rat, Liver, S-9, Aroclor 1254, Method: Preincubation) is “active; positive”.
Take `C=COc1ccccc1`: the mutagenic call is “inactive; negative” under setting [1]; “inactive; negative” (Test System: AMES SALMONELLA TYPHIMURIUM, Strain/Indicator: TA98, Metabolic Activation: RAT LIVER MICROSOMES, Method: STANDARD PLATE); “inactive; negative” under setting [5]; “active; positive” (Test System: AMES SALMONELLA TYPHIMURIUM, Strain/Indicator: TA1535, Metabolic Activation: RAT LIVER MICROSOMES, Method: STANDARD PLATE).
On to `COC(=O)C1=C(C)NC(C)=C(C(=O)OCC(C)=O)C1c1ccccc1[N+](=O)[O-]` (stereo unspecified), for which the mutagenic call under setting [6] is “inactive; negative”; the mutagenic call (Test System: AMES SALMONELLA TYPHIMURIUM, Strain/Indicator: TA98, Metabolic Activation: S-9, Method: PREINCUBATION) was “inactive; negative”; the mutagenic call under setting [7] is “inactive; negative”; the mutagenic call (Test System: AMES SALMONELLA TYPHIMURIUM, Strain/Indicator: TA100, Metabolic Activation: S-9, Method: PREINCUBATION) was “inactive; negative”; the mutagenic call (Test System: AMES SALMONELLA TYPHIMURIUM, Strain/Indicator: TA1535, Metabolic Activation: NONE, Method: PREINCUBATION) is “inactive; negative”; the mutagenic call (Test System: AMES SALMONELLA TYPHIMURIUM, Strain/Indicator: TA1535, Metabolic Activation: S-9, Method: PREINCUBATION) was “inactive; negative”. Moreover, the mutagenic call was “inactive; negative” (Test System: AMES SALMONELLA TYPHIMURIUM, Strain/Indicator: TA1537, Metabolic Activation: NONE, Method: PREINCUBATION); “inactive; negative” (Test System: AMES SALMONELLA TYPHIMURIUM, Strain/Indicator: TA1537, Metabolic Activation: S-9, Method: PREINCUBATION); “inactive; negative” (Test System: E.COLI, Strain/Indicator: WP2 UVRA, Metabolic Activation: NONE, Method: PREINCUBATION); “inactive; negative” (Test System: E.COLI, Strain/Indicator: WP2 UVRA, Metabolic Activation: S-9, Method: PREINCUBATION).
For the molecule `O=C(O)/C(Cl)=C(/C(=O)O)C(Cl)Cl`, the mutagenic call was “inactive; negative” (Test System: AMES SALMONELLA TYPHIMURIUM, Strain/Indicator: TA97, Metabolic Activation: NONE, Method: STANDARD PLATE); “inactive; negative” (Test System: AMES SALMONELLA TYPHIMURIUM, Strain/Indicator: TA97, Metabolic Activation: RAT, LIVER, S-9, PHENOBARBITAL, Method: STANDARD PLATE); “inactive; negative” under setting [1]; “inactive; negative” under setting [2]; “inactive; negative” (Test System: AMES SALMONELLA TYPHIMURIUM, Strain/Indicator: TA98, Metabolic Activation: RAT, LIVER, S-9, PHENOBARBITAL, Method: STANDARD PLATE); “inactive; negative” under setting [4]. Moreover, the mutagenic call (Test System: AMES SALMONELLA TYPHIMURIUM, Strain/Indicator: TA100, Metabolic Activation: RAT, LIVER, S-9, PHENOBARBITAL, Method: STANDARD PLATE) was “inactive; negative”; the mutagenic call (Test System: AMES SALMONELLA TYPHIMURIUM, Strain/Indicator: TA102, Metabolic Activation: NONE, Method: STANDARD PLATE) was “inactive; negative”; the mutagenic call (Test System: AMES SALMONELLA TYPHIMURIUM, Strain/Indicator: TA102, Metabolic Activation: RAT, LIVER, S-9, AROCLOR 1254, Method: STANDARD PLATE) was “inactive; negative”.
On to `Cc1c2c(c(C)c3ccccc13)[C@H]1O[C@H]1c1ccccc1-2`, for which the mutagenic call under setting [6] is “active; positive”.
On to `BrCc1ccc2c3c(cccc13)-c1ccccc1-2`, for which the mutagenic call reads like this: under setting [1], “active; positive”; under setting [3], “active; positive”.
